Like-named read-outs stand apart in the source and are kept apart here.
Target: T1, MCH receptor (Homo sapiens, UniProt Q99705)
T1 construct: expressed in transfected cells; host or cells: CHO cells (membranes)
Test: MCH Receptor Binding Assay
Method: MCH Receptor Binding Assay:
Membranes from CHO cells expressing the MCH receptor were prepared by lysing cells with 5 mM HEPES for 15 min at 4C. Cell lysates were centrifuged ([…], 15 min) and the pellet was resuspended in 5 mM HEPES. For each 96-well plate (Microlite, Dynex Technologies), 1 mg of cell membranes were incubated with 10 mg of wheat germ agglutinin SPA beads (Amersham) for 5 min at 4 C. in a volume of 10 ml of binding buffer (25 mM HEPES, 10 mM MGCl2, 10 mM NaCl, 5 mM MnCl2, 0.1% BSA). The membrane/bead mixture was centrifuged (1500×g, 3.5 min), the supernatant was aspirated, and the pellet was resuspended in 10 ml binding buffer. The centrifugation, aspiration and resuspension were then repeated. […] Nonspecific binding was determined by including 1 μM MCH in the binding reaction. The binding reaction was incubated at room temperature for 2 h. Plates were then analyzed in a TOPCOUNT microplate scintillation counter (Packard). Data was analyzed and Ki values were determined using GraphPad Prim.

[1] = Table 1b, preferred compounds, read-out: MCH R1 Ki
[2] = Binding Activity, membranes from CHO cells expressing the MCH receptor, [125I]-MCH, read-out: MCH Ki

T1 sequence (Q99705 whole entry): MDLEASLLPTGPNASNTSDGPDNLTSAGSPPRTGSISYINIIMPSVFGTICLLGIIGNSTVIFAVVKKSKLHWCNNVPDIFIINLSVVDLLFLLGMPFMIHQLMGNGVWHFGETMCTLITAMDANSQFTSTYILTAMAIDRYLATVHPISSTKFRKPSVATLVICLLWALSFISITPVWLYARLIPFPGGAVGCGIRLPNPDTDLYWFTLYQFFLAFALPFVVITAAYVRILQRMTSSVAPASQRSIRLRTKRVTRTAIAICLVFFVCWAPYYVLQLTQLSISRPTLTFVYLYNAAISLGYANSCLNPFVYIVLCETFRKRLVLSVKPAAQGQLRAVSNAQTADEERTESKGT

| Ki [1] [nM] | Ki [2] [nM] | SMILES |
| --- | --- | --- |
| 16 |  | N#Cc1cccc([C@@]23CC[C@@H](N(CCN4CC[C@@H](O)C4)C(=O)Nc4ccc(F)c(C(F)(F)F)c4)CC2C3)c1 (some centres unmarked) [drawing 655] |
| 4.2 |  | CN1CCN(CCCN(C(=O)Nc2ccc(F)c(Cl)c2)[C@@H]2CC[C@]3(c4cccc(C#N)c4)C[C@@H]3C2)CC1 |
| 7.1 |  | N#Cc1cccc([C@]23CC[C@@H](N(CCN4CC[C@@H](O)C4)C(=O)Nc4ccc(F)c(C(F)(F)F)c4)[C@H]2C3)c1 [drawing 669] |
| 1.8 |  | N#Cc1cccc([C@@]23CC[C@@H](N(CCCN4CC[C@@H](O)C4)C(=O)Nc4cc(F)cc(F)c4)CC2C3)c1 (some centres unmarked) |
| 8 |  | CC1(C)[C@H]2[C@@H](CO)N(CCCCN(C(=O)Nc3ccc(F)c(C(F)(F)F)c3)[C@@H]3CC[C@@]4(c5ccc(C#N)cc5)C[C@H]34)C[C@H]21 |
|  | 1.6 | N#Cc1cccc([C@]23CC[C@@H](N(CCCCN4CCCCC4)C(=O)Nc4ccc(F)c(C(F)(F)F)c4)[C@H]2C3)c1 [Example 227] |
| 13 |  | CN1CCN(CCCN(C(=O)Nc2ccc(F)c(Cl)c2)[C@@H]2CC[C@]3(c4ccc(OC(F)(F)F)cc4)C[C@H]23)CC1 |
| 9.1 |  | CNCCN(C(=O)Nc1ccc(F)c(Cl)c1)[C@@H]1CC[C@@]2(c3cccc(C#N)c3)CC2C1 (some centres unmarked) |
|  | 10 | CN(C)CCCCN(C(=O)Nc1ccc(F)c(Cl)c1)[C@@H]1CC[C@]2(c3cccc(C#N)c3)C[C@H]12 [Example 195] |
| 7.5 |  | N#Cc1cccc([C@]23CC[C@H](N(CC4CCN(C5CCSC5)CC4)C(=O)Nc4ccc(F)c(Cl)c4)CC2C3)c1 (some centres unmarked) |
| 7.1 |  | CCNS(=O)(=O)NC1CCN(CCCN(C(=O)Nc2ccc(F)c(F)c2)[C@@H]2CC[C@@]3(c4cccc(C#N)c4)CC3C2)C1 (some centres unmarked) |
| 45 |  | N#Cc1cccc([C@@]23CC[C@@H](N(CC4CCN(S(=O)(=O)N5CCOCC5)CC4)C(=O)Nc4ccc(F)c(F)c4)CC2C3)c1 (some centres unmarked) |
|  | 30 | CN1CCN(CCN(C(=O)Nc2ccc(F)c(C(F)(F)F)c2)[C@@H]2CC[C@]3(c4cccc(C#N)c4)C[C@H]23)CC1 [Example 206] |
| 14 |  | O=C(Nc1ccc(F)c(Cl)c1)N(CCN1CCCC1)C1CC=C(c2cccc(Cl)c2)CC1 (centres unmarked) |
|  | 7.1 | N#Cc1cccc([C@]23CC[C@@H](N(CCN4CC[C@@H](O)C4)C(=O)Nc4ccc(F)c(C(F)(F)F)c4)[C@H]2C3)c1 [Example 193] |
| 5.8 |  | CC(=O)NC1CCN(CCCN(C(=O)Nc2ccc(F)c(F)c2)[C@@H]2CC[C@@]3(c4cccc(C#N)c4)CC3C2)C1 (some centres unmarked) |
| 13 |  | N#Cc1cccc([C@@]23CC[C@@H](N(CCN4CC[C@@H](O)C4)C(=O)Nc4cc(Cl)cc(Cl)c4)CC2C3)c1 (some centres unmarked) |
| 2.9 |  | CN1CCN(CCCCN(C(=O)Nc2ccc(F)c(Cl)c2)C2CC[C@@]3(c4ccc(C#N)cc4)CC23)CC1 (some centres unmarked) |
| 18 |  | N#Cc1cccc([C@@]23CC[C@@H](N(CCN4C[C@@H](O)[C@@H](O)C4)C(=O)Nc4ccc(F)c(Cl)c4)CC2C3)c1 (some centres unmarked) |
|  | 23 | N#Cc1cccc([C@@]23CCC(N(CCN4CC[C@@H](O)C4)C(=O)Nc4ccc(F)c(C(F)(F)F)c4)[C@@H]2C3)c1 (some centres unmarked) [Example 199] |

| Ki [1] [nM] | Ki [2] [nM] | SMILES |
| --- | --- | --- |
| 5 |  | N#Cc1cccc([C@@]23CC[C@@H](N(CCCN4CC[C@@H](F)C4)C(=O)Nc4ccc(F)c(F)c4)CC2C3)c1 (some centres unmarked) |
| 1.2 |  | N#Cc1cccc([C@@]23CC[C@@H](N(CCCN4CC[C@@H](O)C4)C(=O)Nc4ccc(F)c(F)c4)CC2C3)c1 (some centres unmarked) |
| 3.7 |  | N#Cc1cccc([C@@]23CC[C@@H](N(CCCN4CCC4)C(=O)Nc4ccc(F)c(F)c4)CC2C3)c1 (some centres unmarked) |
| 2.1 |  | CC(C)N(CCN(C(=O)Nc1cccc(F)c1)[C@H]1CC[C@]2(c3cccc(C#N)c3)CC2C1)C(C)C (some centres unmarked) |
| 0.9 |  | CC(=O)Nc1cccc([C@@]23CC[C@@H](N(CCCN4CCN(C)CC4)C(=O)Nc4ccc(F)c(Cl)c4)CC2C3)c1 (some centres unmarked) |
|  | 2.2 | CN1CCN(CCCCN(C(=O)Nc2ccc(F)c(C(F)(F)F)c2)[C@@H]2CC[C@]3(c4cccc(C#N)c4)C[C@H]23)CC1 [Example 226] |
|  | 18 | N#Cc1cccc([C@]23CC[C@@H](N(CCN4CCCC4)C(=O)Nc4ccc(F)c(Cl)c4)[C@H]2C3)c1 [Example 189] |
| 3 |  | CN1CCN(CCCN(C(=O)Nc2ccc(F)c(C(F)(F)F)c2)[C@@H]2CC[C@@]3(c4ccc(C#N)cc4)CC23)CC1 (some centres unmarked) |
|  | 22 | N#Cc1cccc([C@]23CC[C@@H](N(CCN4CC[C@@H](O)C4)C(=O)Nc4ccc(F)c(Cl)c4)[C@H]2C3)c1 [Example 191] |
| 11 |  | N#Cc1cccc([C@]23CC[C@@H](N(CCN4CC[C@@H](O)C4)C(=O)Nc4ccc(F)c(C(F)(F)F)c4)[C@H]2C3)c1 [drawing 636] |
|  | 79 | O=C(Nc1ccc(F)c(C(F)(F)F)c1)N(CCN1CC[C@@H](O)C1)[C@@H]1CC[C@]2(c3cccc(Br)c3)C[C@H]12 [Example 197] |
| 4.9 |  | CNS(=O)(=O)NC1CCN(CCCN(C(=O)Nc2ccc(F)c(Cl)c2)[C@@H]2CC[C@@]3(c4cccc(C#N)c4)CC3C2)C1 (some centres unmarked) |
| 5.4 |  | CS(=O)(=O)N1CCC(CN(C(=O)Nc2ccc(F)c(F)c2)[C@@H]2CC[C@@]3(c4cccc(C#N)c4)CC3C2)CC1 (some centres unmarked) |
| 11 |  | N#Cc1ccc(C2=CCC(N(CCN3CCCC3)C(=O)Nc3ccc(F)c(Cl)c3)CC2)cc1 (centres unmarked) |
|  | 22 | CCCN1CCN(CCN(C(=O)Nc2ccc(F)c(C(F)(F)F)c2)[C@@H]2CC[C@]3(c4cccc(C#N)c4)C[C@H]23)CC1 [Example 207] |
| 1.8 |  | N#Cc1cccc([C@@]23CC[C@@H](N(CCCN4CC[C@@H](O)C4)C(=O)Nc4ccc(F)c(Cl)c4)CC2C3)c1 (some centres unmarked) [drawing 656] |
| 5.9 |  | CCOC(=O)NC1CCN(CCCN(C(=O)Nc2ccc(F)c(F)c2)[C@@H]2CC[C@@]3(c4cccc(C#N)c4)CC3C2)C1 (some centres unmarked) |
| 3 |  | CN(C)CCN(C(=O)Nc1ccc(Cl)c(Cl)c1)C1CC=C(c2cccc(C#N)c2)CC1 (centres unmarked) |
| 3.9 |  | N#Cc1cccc([C@]23CC[C@@H](N(CCCCN4CCCC4)C(=O)Nc4ccc(F)c(Cl)c4)[C@H]2C3)c1 [drawing 675] |
| 1.1 |  | N#Cc1cccc([C@@]23CC[C@@H](N(CCCN4CCCC4)C(=O)Nc4ccc(F)c(F)c4)CC2C3)c1 (some centres unmarked) |

| Ki [1] [nM] | Ki [2] [nM] | SMILES |
| --- | --- | --- |
| 11.2 |  | CC(C)N(CCN(C(=O)Nc1ccsc1)[C@H]1CC[C@]2(c3cccc(C#N)c3)CC2C1)C(C)C (some centres unmarked) |
|  | 9 | CC(C)CN1CCN(CCN(C(=O)Nc2ccc(F)c(C(F)(F)F)c2)[C@@H]2CC[C@]3(c4cccc(C#N)c4)C[C@H]23)CC1 [Example 208] |
| 20 |  | C[S+]([O-])c1cccc(C23CCC(N(CCCN4CCCC4)C(=O)Nc4ccc(Cl)c(Cl)c4)CC2C3)c1 (centres unmarked) |
| 2.2 |  | CN1CCN(CCCCN(C(=O)Nc2ccc(F)c(Cl)c2)[C@@H]2CC[C@]3(c4cccc(C#N)c4)C[C@H]23)CC1 |
|  | 10 | N#Cc1cccc([C@]23CC[C@@H](N(CCN4CCN(CC5CC5)CC4)C(=O)Nc4ccc(F)c(C(F)(F)F)c4)[C@H]2C3)c1 [Example 209] |
| 22 |  | CSc1cccc([C@@]23CC[C@@H](N(CCCN4CCCC4)C(=O)Nc4ccc(F)c(F)c4)CC2C3)c1 (some centres unmarked) |
|  | 14 | CN(C)CCN(C(=O)Nc1ccc(F)c(Cl)c1)[C@@H]1CC[C@]2(c3cccc(C#N)c3)C[C@H]12 [Example 187] |
| 2 |  | CN1CCN(CCCCN(C(=O)Nc2cc(Cl)nc(Cl)c2)C2CC[C@@]3(c4ccc(C#N)cc4)CC23)CC1 (some centres unmarked) |
| 5.4 |  | O=C(Nc1ccc(F)c(F)c1)N(CCCN1CCCC1)[C@@H]1CC[C@@]2(c3cccc(-c4ncc[nH]4)c3)CC2C1 (some centres unmarked) |
| 12 |  | O=C(Nc1ccc(F)c(C(F)(F)F)c1)N(CCN1CCCC1)C1CC=C(c2cccc(Cl)c2)CC1 (centres unmarked) |
| 14 |  | CN(C)CCN(C(=O)Nc1ccc(F)c(Cl)c1)[C@@H]1CC[C@]2(c3cccc(C#N)c3)C[C@H]12 [drawing 673] |
| 1.6 |  | CC(C)N(CCO)CCN(C(=O)Nc1cc(Cl)nc(Cl)c1)C1CC[C@@]2(c3cccc(C#N)c3)CC2C1 (some centres unmarked) |
| 3.5 |  | N#Cc1cccc([C@@]23CCC(N(CCN4CC[C@@H](O)C4)C(=O)Nc4cc(Cl)cc(Cl)c4)CC2C3)c1 (some centres unmarked) |
| 26 |  | CS(=O)(=O)N1CCC(CN(C(=O)Nc2ccc(F)c(C(F)(F)F)c2)[C@@H]2CC[C@@]3(c4cccc(C#N)c4)CC3C2)CC1 (some centres unmarked) |
| 3 |  | N#Cc1cccc([C@@]23CC[C@@H](N(CCCN4CC[C@@H](O)C4)C(=O)Nc4ccc(F)c(Cl)c4)CC2C3)c1 (some centres unmarked) [drawing 646] |
|  | 20 | N#Cc1cccc([C@]23CC[C@@H](N(CCN4CCNCC4)C(=O)Nc4ccc(F)c(C(F)(F)F)c4)[C@H]2C3)c1 [Example 210] |
|  | 3.9 | N#Cc1cccc([C@]23CC[C@@H](N(CCCCN4CCCC4)C(=O)Nc4ccc(F)c(Cl)c4)[C@H]2C3)c1 [Example 196] |
| 4.1 |  | N#Cc1cccc([C@]23CC[C@@H](N(CCN4CCCCC4)C(=O)Nc4ccc(F)c(Cl)c4)[C@H]2C3)c1 [drawing 671] |
| 15 |  | CN1CCN(CCCN(C(=O)Nc2ccc(F)c(Cl)c2)[C@@H]2CC[C@]3(c4cccc(Cl)c4)C[C@H]23)CC1 |

| SMILES | Ki [1] [nM] | Ki [2] [nM] |
| --- | --- | --- |
| N#Cc1cccc([C@]23CC[C@@H](N(CCCCN4CCOCC4)C(=O)Nc4ccc(F)c(C(F)(F)F)c4)[C@H]2C3)c1 [Example 225] |  | 2.6 |
| N#Cc1cccc([C@]23CC[C@@H](N(CCN4CCCC4)C(=O)Nc4cc(Cl)cc(Cl)c4)[C@H]2C3)c1 [Example 188] |  | 15 |
| N#Cc1cccc([C@@]23CCC(N(CCN4CC[C@@H](O)C4)C(=O)Nc4ccc(F)c(Cl)c4)[C@@H]2C3)c1 (some centres unmarked) [Example 190] |  | 13 |
| N#Cc1cccc(C23CCC(N(CCN4CCCC4)C(=O)Nc4ccc(F)c(Cl)c4)C2C3)c1 (centres unmarked) | 18 |  |
| N#Cc1cccc([C@]23CCC(N(CCN4CC[C@@H](O)C4)C(=O)Nc4ccc(F)c(Cl)c4)[C@H]2C3)c1 (some centres unmarked) | 13 |  |
| N#Cc1cccc(C23CCC(N(CCN4CCCC4)C(=O)Nc4cc(Cl)cc(Cl)c4)C2C3)c1 (centres unmarked) | 15 |  |
